Measured values taken from US11214803B2, “Modulators of YAP1 expression” (Ionis Pharmaceuticals, Inc., priority 2019, dated 2022).
Strand notation (5' to 3'): a small letter for the sugar, then the base; units joined by * are phosphorothioate-linked, units joined directly phosphodiester-linked; [ ] holds rarer units or linkages, { } end groups; capitals alone tell only the bases. k = constrained ethyl (cEt); [5mC] = 5-methylcytosine; d = 2'-deoxy (DNA)

Tested on: Yap1 mRNA
Assay: Antisense inhibition of human Yap1 in A-431 cells by cEt gapmers, single dose (Example 2, RTS4814)
Assay type: cell-based
In short: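 A-431 cells (5,000/well) received 2,000 nM oligonucleotide by free uptake for about 48 h. Yap1 mRNA was then quantified by RT-qPCR with primer probe set RTS4814, normalized to RIBOGREEN total RNA, and reported as % of untreated control; asterisked values mark oligos inside the amplicon.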

[1] = Yap1 mRNA as percent of untreated control, A-431 cells, 3-10-3 cEt gapmers targeting SEQ ID NO.: 1, and 2, Table 30
[2] = Table 6, A-431 cells, 5,000 cells per well, free uptake, 2,000 nM modified oligonucleotide, approx. 48 hours, RTS4814, normalized to RIBOGREEN, Yap1 mRNA relative to untreated control cells
[3] = Table 24, Yap1 mRNA as percent of untreated control, 3-10-3 cEt gapmers targeting SEQ ID NO.: 1, and 2
[4] = Table 20, Yap1 mRNA, percent of untreated control, 3-10-3 cEt gapmers targeting SEQ ID NO.: 1 and 2
[5] = Table 19, A-431 cells, 5,000 cells per well, free uptake, 2,000 nM modified oligonucleotide, approx. 48 hours, RTS4814, normalized to RIBOGREEN, Yap1 mRNA as percent of untreated control
[6] = Table 33, Yap1 mRNA, percent of untreated control, 3-10-3 cEt gapmers targeting SEQ ID NO.: 1, and 2
[7] = A-431 cells, 5,000 cells per well, free uptake, 2,000 nM modified oligonucleotide, approx. 48 hours, RTS4814, normalized to RIBOGREEN, Table 4, asterisk (*) = targets amplicon region of primer probe set
[8] = Table 21, Yap1 mRNA, percent of untreated control, 3-10-3 cEt gapmers targeting SEQ ID NO.: 1 and 2
[9] = Table 25, Yap1 mRNA as percent of untreated control, 3-10-3 cEt gapmers targeting SEQ ID NO.: 1, and 2
[10] = Table 5, A-431 cells, 5,000 cells per well, free uptake, 2,000 nM modified oligonucleotide, approx. 48 hours, RTS4814, normalized to RIBOGREEN, Yap1 mRNA relative to untreated control cells
[11] = Table 23, Yap1 mRNA as percent of untreated control, 3-10-3 cEt gapmers, single dose
[12] = Table 22, Yap1 mRNA as percent of untreated control, 3-10-3 cEt gapmers, single dose
[13] = Yap1 mRNA as percent of untreated control, A-431 cells, 3-10-3 cEt gapmers targeting SEQ ID NO.: 1, and 2, Table 31
[14] = Table 32, Yap1 mRNA, percent of untreated control, 3-10-3 cEt gapmers targeting SEQ ID NO.: 1, and 2
[15] = Table 18, A-431 cells, 5,000 cells per well, free uptake, 2,000 nM modified oligonucleotide, approx. 48 hours, RTS4814, normalized to RIBOGREEN, Yap1 mRNA as percent of untreated control

1074640 (antisense kG*k[5mC]*k[5mC]*dA*dA*dA*dA*dT*dA*d[5mC]*dT*dT*dA*kG*kA*kT) [compound 1074640]
YAP1 (% UTC) [1]: 26 % UTC

716420 (k[5mC]*kA*kA*d[5mC]*dT*dG*dG*d[5mC]*dT*dT*dA*dT*dG*kG*kA*kA; antisense) [Compound 716420]
YAP1 (% UTC) [2]: 50 % UTC

1074442 (kG*kA*k[5mC]*d[5mC]*dA*dG*dT*dA*dA*dA*dT*d[5mC]*dA*kT*kG*kT; antisense) [Compound 1074442]
YAP1 (% UTC) [3]: 21 % UTC

1075750 (k[5mC]*kA*kA*dT*dT*dA*dT*dG*dA*dA*dT*dG*dA*kT*kG*kG; antisense) [Compound 1075750]
YAP1 (% UTC) [4]: 10 % UTC

1075205 (antisense kA*kT*kT*dA*dA*dA*dT*dG*dA*dG*d[5mC]*dA*d[5mC]*k[5mC]*kA*k[5mC]) [Compound 1075205]
YAP1 (% UTC) [5]: 29 % UTC

1074771 (kA*kA*kT*d[5mC]*dT*dT*dA*dT*d[5mC]*d[5mC]*d[5mC]*dA*dA*kT*kG*k[5mC]; antisense) [compound 1074771]
YAP1 (% UTC) [6]: 18 % UTC

716433 (kA*kG*k[5mC]*dA*dT*d[5mC]*dT*dG*dA*d[5mC]*dT*dT*d[5mC]*kT*kA*kA; antisense) [Compound 716433]
YAP1 (% UTC) [7]: 20 % UTC

716442 (kG*k[5mC]*kA*d[5mC]*dT*dA*dG*dG*dA*dG*dG*dA*dA*kA*kA*kG; antisense) [Compound 716442]
YAP1 (% UTC) [7]: 63 % UTC

1074407 (antisense kT*kA*kA*dA*dG*dT*dA*dT*d[5mC]*dT*dT*dG*d[5mC]*kT*kG*kG) [Compound 1074407]
YAP1 (% UTC) [8]: 6 % UTC

1075691 (k[5mC]*kG*kT*d[5mC]*dA*dA*dA*dA*dT*dT*dA*dA*d[5mC]*kA*kG*kA; antisense) [Compound 1075691]
YAP1 (% UTC) [9]: 46 % UTC

716436 (kA*k[5mC]*kT*dG*dG*dA*d[5mC]*dA*dA*dA*dG*dG*dA*kA*kG*k[5mC]; antisense) [Compound 716436]
YAP1 (% UTC) [7]: 59 % UTC

716414 (kG*kT*kT*d[5mC]*dA*dT*dT*d[5mC]*d[5mC]*dA*dT*d[5mC]*dT*k[5mC]*k[5mC]*kT; antisense) [Compound 716414]
YAP1 (% UTC) [2]: 59 % UTC

716481 (kT*k[5mC]*kA*dG*d[5mC]*dA*dT*dA*dG*dA*dA*dG*dT*kA*kG*kG; antisense) [Compound 716481]
YAP1 (% UTC) [7]: 23 % UTC

1074151 (antisense kG*kG*kG*d[5mC]*d[5mC]*dG*dA*dG*dG*dT*dG*dG*dA*kG*kA*kA) [Compound 1074151]
YAP1 (% UTC) [8]: 81 % UTC

716380 (kT*kT*kA*dA*dG*dA*dA*dG*dT*dA*dT*d[5mC]*dT*k[5mC]*kT*kG; antisense) [Compound 716380]
YAP1 (% UTC) [10]: 54 % UTC

1075433 (antisense kT*kT*kA*dA*d[5mC]*dT*dA*dA*d[5mC]*dT*dA*dA*dA*k[5mC]*kT*kG) [Compound 1075433]
YAP1 (% UTC) [11]: 124 % UTC

1076231 (kT*kT*kA*dG*dA*dA*dA*dT*dG*dG*dA*d[5mC]*dT*kG*kG*kG; antisense) [Compound 1076231]
YAP1 (% UTC) [8]: 16 % UTC

1076371 (antisense kT*kA*kA*dG*dA*dA*d[5mC]*dG*dA*dA*d[5mC]*d[5mC]*dT*k[5mC]*k[5mC]*kA) [compound 1076371]
YAP1 (% UTC) [6]: 49 % UTC

1075432 (antisense k[5mC]*kT*kA*dA*d[5mC]*dT*dA*dA*dA*d[5mC]*dT*dG*dA*kT*kT*k[5mC]) [Compound 1075432]
YAP1 (% UTC) [12]: 121 % UTC

1075079 (antisense k[5mC]*kA*k[5mC]*d[5mC]*dA*dA*dA*dA*dG*d[5mC]*dT*dT*dA*kG*kT*kT) [Compound 1075079]
YAP1 (% UTC) [8]: 40 % UTC

716346 (kT*kT*kT*d[5mC]*d[5mC]*d[5mC]*dT*dG*dG*d[5mC]*dG*dG*d[5mC]*kG*kG*k[5mC]; antisense) [Compound 716346]
YAP1 (% UTC) [7]: 77 % UTC

1075849 (k[5mC]*kT*kA*dG*dA*dA*d[5mC]*dA*d[5mC]*dG*d[5mC]*dT*dG*kA*kT*kG; antisense) [Compound 1075849]
YAP1 (% UTC) [11]: 55 % UTC

1074789 (kA*kT*k[5mC]*dA*dA*d[5mC]*d[5mC]*dA*dT*dA*dA*dG*dT*kA*kG*kA; antisense) [Compound 1074789]
YAP1 (% UTC) [5]: 17 % UTC

1074411 (antisense kT*kG*kT*dG*dA*dA*dA*dG*dA*dG*dG*dT*d[5mC]*kA*kG*k[5mC]) [Compound 1074411]
YAP1 (% UTC) [9]: 3 % UTC

716368 (kG*kT*k[5mC]*dG*dG*dG*d[5mC]*dA*dG*d[5mC]*dT*dT*d[5mC]*k[5mC]*kG*kG; antisense) [Compound 716368]
YAP1 (% UTC) [10]: 86 % UTC

1076553 (antisense kT*kG*kG*dG*dA*dA*dT*dA*dA*dT*dT*dT*dG*kG*k[5mC]*k[5mC]) [Compound 1076553]
YAP1 (% UTC) [11]: 69 % UTC

1074763 (kT*kG*k[5mC]*dT*dA*d[5mC]*d[5mC]*d[5mC]*dA*dA*dT*dA*d[5mC]*kA*kA*k[5mC]; antisense) [Compound 1074763]
YAP1 (% UTC) [9]: 25 % UTC

1076007 (k[5mC]*kA*kT*dT*dA*dG*dG*d[5mC]*d[5mC]*dT*dT*dT*dT*kA*k[5mC]*kT; antisense) [Compound 1076007]
YAP1 (% UTC) [8]: 27 % UTC

1074961 (antisense kT*k[5mC]*k[5mC]*dT*d[5mC]*d[5mC]*dT*dT*dA*dA*d[5mC]*d[5mC]*d[5mC]*kG*kG*kG) [compound 1074961]
YAP1 (% UTC) [13]: 93 % UTC

1074152 (antisense k[5mC]*kG*kG*dG*d[5mC]*d[5mC]*dG*dA*dG*dG*dT*dG*dG*kA*kG*kA) [Compound 1074152]
YAP1 (% UTC) [12]: 77 % UTC

1076210 (kA*kT*kT*dT*dA*dT*dA*dT*dG*d[5mC]*dT*d[5mC]*d[5mC]*k[5mC]*kT*k[5mC]; antisense) [compound 1076210]
YAP1 (% UTC) [14]: 20 % UTC

1075430 (antisense k[5mC]*kT*kT*dA*dA*d[5mC]*dT*dA*dA*d[5mC]*dT*dT*dG*kA*k[5mC]*k[5mC]) [Compound 1075430]
YAP1 (% UTC) [4]: 96 % UTC

1074762 (kG*k[5mC]*kT*dA*d[5mC]*d[5mC]*d[5mC]*dA*dA*dT*dA*d[5mC]*dA*kA*k[5mC]*k[5mC]; antisense) [Compound 1074762]
YAP1 (% UTC) [3]: 6 % UTC

1076265 (kT*kA*kT*dT*dA*d[5mC]*d[5mC]*d[5mC]*dA*dA*dT*dA*dA*k[5mC]*k[5mC]*kA; antisense) [Compound 1076265]
YAP1 (% UTC) [11]: 9 % UTC

1076101 (kA*kA*kA*dT*dA*dA*dG*dG*dG*dA*d[5mC]*dT*dA*k[5mC]*kT*kT; antisense) [Compound 1076101]
YAP1 (% UTC) [5]: 71 % UTC

1074128 (k[5mC]*kT*k[5mC]*d[5mC]*dA*d[5mC]*dT*dG*dG*dT*d[5mC]*dT*dG*kG*k[5mC]*kG; antisense) [compound 1074128]
YAP1 (% UTC) [1]: 76 % UTC

1074118 (antisense k[5mC]*kA*k[5mC]*dT*d[5mC]*dG*dG*dA*d[5mC]*d[5mC]*dT*dG*d[5mC]*kG*kG*k[5mC]) [Compound 1074118]
YAP1 (% UTC) [4]: 66 % UTC

1074692 (antisense k[5mC]*k[5mC]*k[5mC]*d[5mC]*d[5mC]*d[5mC]*d[5mC]*dA*dA*dA*d[5mC]*dT*dT*kT*k[5mC]*k[5mC]) [Compound 1074692]
YAP1 (% UTC) [15]: 101 % UTC

1075622 (kT*k[5mC]*kT*dT*dA*dT*dA*d[5mC]*d[5mC]*dT*dA*dT*d[5mC]*kT*kT*k[5mC]; antisense) [Compound 1075622]
YAP1 (% UTC) [4]: 56 % UTC

1074225 (antisense k[5mC]*k[5mC]*kA*dG*dA*dG*dA*d[5mC]*dT*dA*d[5mC]*dT*d[5mC]*k[5mC]*kA*kG) [compound 1074225]
YAP1 (% UTC) [13]: 11 % UTC

1075282 (antisense kG*kA*kA*dA*dA*dA*dT*dG*dA*dG*d[5mC]*d[5mC]*d[5mC]*kG*kG*kT) [compound 1075282]
YAP1 (% UTC) [14]: 103 % UTC

716518 (antisense k[5mC]*kA*kA*dG*dG*dT*d[5mC]*d[5mC]*d[5mC]*d[5mC]*d[5mC]*dT*dA*kA*kA*kT) [Compound 716518]
YAP1 (% UTC) [10]: 88 % UTC

1075076 (antisense k[5mC]*kA*kT*dA*dA*d[5mC]*dA*dT*d[5mC]*dA*dT*dG*dG*kA*kA*kG) [Compound 1075076]
YAP1 (% UTC) [15]: 25 % UTC

716521 (antisense k[5mC]*kA*kG*d[5mC]*dA*d[5mC]*dG*dG*dT*dG*dT*dA*dA*kG*kA*k[5mC]) [Compound 716521]
YAP1 (% UTC) [10]: 79 % UTC
